From ChEMBL document CHEMBL3879914, “Inhibitors of central nervous system vasoactive inhibitory peptide receptor 2” (2014) come the findings set out here.

The target in assay [1] is T1, Vasoactive intestinal polypeptide receptor 2 (Homo sapiens) (UniProt P41587).
T1 sequence (whole entry): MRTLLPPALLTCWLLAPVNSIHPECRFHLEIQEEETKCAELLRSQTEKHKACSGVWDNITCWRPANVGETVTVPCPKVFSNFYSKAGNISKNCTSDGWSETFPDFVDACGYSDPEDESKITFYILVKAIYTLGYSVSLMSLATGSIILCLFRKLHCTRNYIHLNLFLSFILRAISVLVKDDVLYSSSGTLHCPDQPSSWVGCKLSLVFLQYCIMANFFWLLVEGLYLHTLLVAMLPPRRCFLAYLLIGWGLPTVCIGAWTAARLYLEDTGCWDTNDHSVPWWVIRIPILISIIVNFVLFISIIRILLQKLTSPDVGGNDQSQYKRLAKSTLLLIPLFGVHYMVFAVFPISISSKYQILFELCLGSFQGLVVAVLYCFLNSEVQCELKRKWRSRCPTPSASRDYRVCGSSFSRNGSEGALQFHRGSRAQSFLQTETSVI
Put plainly: Antagonist activity at recombinant human N-terminal signal peptide/FLAG epitope-tagged VIPR2 expressed in HEK293 cells co-expressing CAMYEL assessed as inhibition of VIP-induced cAMP accumulation at 0.5 uM preincubated for 5 mins with luciferin, coelenterazine H followed by VIP addition measured after 5 mins by BRET assay relative to control. The format is functional, cell-based. Background: cAMP levels reflect the balance of adenylyl cyclase and phosphodiesterase activity.

Assay [2] concerns the target T1, Vasoactive intestinal polypeptide receptor 2 (Homo sapiens). Put plainly: Antagonist activity at recombinant human N-terminal signal peptide/FLAG epitope-tagged VIPR2 expressed in HEK293 cells co-expressing CAMYEL assessed as inhibition of VIP-induced cAMP accumulation at 1 uM preincubated for 5 mins with luciferin, coelenterazine H followed by VIP addition measured after 5 mins by BRET assay relative to control. It is filed as functional, cell-based.

The target is the same in assay [3]. Put plainly: Antagonist activity at recombinant human N-terminal signal peptide/FLAG epitope-tagged Rluc8-fused VIPR2 expressed in HEK293 cells assessed as inhibition of VIP-induced human mVenus-beta-arrestin2 binding at 0.5 uM preincubated for 5 mins with luciferin, coelenterazine H followed by VIP addition measured after 5 mins by BRET assay relative to control. The format is cell-based. (In BRET a luciferase serves as donor, and the signal depends on an acceptor being close.)

For assay [4] the target is unchanged. Kind of assay: Antagonist activity at recombinant human N-terminal signal peptide/FLAG epitope-tagged Rluc8-fused VIPR2 expressed in HEK293 cells assessed as inhibition of VIP-induced human mVenus-beta-arrestin2 binding at 1 uM preincubated for 5 mins with luciferin, coelenterazine H followed by VIP addition measured after 5 mins by BRET assay relative to control. The format is cell-based.

Assay [5] shares this target. Kind of assay: Antagonist activity at recombinant human N-terminal signal peptide/FLAG epitope-tagged VIPR2 expressed in HEK293 cells co-expressing CAMYEL assessed as inhibition of VIP-induced cAMP accumulation at 5 uM preincubated for 5 mins with luciferin, coelenterazine H followed by VIP addition measured after 5 mins by BRET assay relative to control. The format is functional, cell-based.

The target is the same in assay [6]. Put plainly: Antagonist activity at recombinant human N-terminal signal peptide/FLAG epitope-tagged Rluc8-fused VIPR2 expressed in HEK293 cells assessed as inhibition of VIP-induced human mVenus-beta-arrestin2 binding at 5 uM preincubated for 5 mins with luciferin, coelenterazine H followed by VIP addition measured after 5 mins by BRET assay relative to control. The format is cell-based.

Consider `CCCCNC(=O)[C@H](Cc1ccccc1)C[C@H](O)CNS(=O)(=O)c1ccc([N+](=O)[O-])cc1`, for which the inhibition (commonly the change of the read-out against control, counted positive when it falls) in assay [1] is 0.9%; in assay [2], 5.1%; in assay [3], -5.6 to 9.55%; in assay [4], 1.9%; in assay [5], 5.3%; in assay [6], 13.8%.
Take `CC1CCC(NC(=O)[C@H](Cc2ccccc2)C[C@H](O)CNS(=O)(=O)c2ccc([N+](=O)[O-])cc2)CC1` (stereo partly drawn): the inhibition in assay [1] is -5%; in assay [2] it was -2.5%; in assay [3] it was -1.2 to 13.4%; in assay [4] it was -1.3%; in assay [5] it was -2.8%; in assay [6], 0.4%.
With `O=C(NC[C@@H](O)C[C@@H](Cc1ccccc1)C(=O)N[C@H]1c2ccccc2C[C@H]1O)C1CC1`, the inhibition in assay [1] is 21%; in assay [2] it was 21.1%; in assay [3], -3.8 to 26.6%; in assay [4], 37%; in assay [5] it was 24%; in assay [6], 29.1%.
`CCCNc1ccc(S(=O)(=O)NC[C@@H](O)C[C@@H](Cc2ccccc2)C(=O)N[C@H]2c3ccccc3C[C@H]2O)cc1`: the inhibition in assay [1] is -2.9%; in assay [2], 11.3%; in assay [3] it was 4.1 to 15.6%; in assay [4] it was 2.6%; in assay [5] it was 24.5%; in assay [6], 6.7%.
Regarding `O=C(NC[C@@H](O)C[C@@H](Cc1ccccc1)C(=O)N[C@H]1c2ccccc2C[C@H]1O)c1ccccc1[N+](=O)[O-]`, the inhibition in assay [1] was 17.6%; in assay [2] it was 14.3%; in assay [3], 17.6 to 36.4%; in assay [4], 35.1%; in assay [5] it was 9.1%; in assay [6], 26.1%.
As for `O=C(N[C@H]1c2ccccc2C[C@H]1O)[C@H](Cc1ccccc1)C[C@H](O)CNS(=O)(=O)c1cccc([N+](=O)[O-])c1`, the inhibition in assay [1] was 18.4%; in assay [2] it was 15.2%; in assay [3], 24.2 to 27.4%; in assay [4] it was 35.1%; in assay [5], 21.3%; in assay [6], 33.4%.
For `O=C([C@H](Cc1ccccc1)C[C@H](O)CNS(=O)(=O)c1ccc([N+](=O)[O-])cc1)N1CCOCC1`, the inhibition in assay [1] is -3.8%; in assay [2], -1.6%; in assay [3] it was -4.3 to 0.6%; in assay [4], 8.9%; in assay [5], 2.4%; in assay [6], -1.2%.
In the case of `O=C(N[C@H]1c2ccccc2C[C@H]1O)[C@H](Cc1ccccc1)C[C@H](O)CNS(=O)(=O)c1ccccc1F`, the inhibition is 28.6% in assay [1]; 22.3% in assay [2]; 5.3 to 40.1% in assay [3]; 28.3% in assay [4]; 28.3% in assay [5]; 52% in assay [6].
On to `COc1ccc(S(=O)(=O)NC[C@@H](O)C[C@@H](Cc2ccccc2)C(=O)N[C@H]2c3ccccc3C[C@H]2O)cc1OC`, for which the inhibition was 21.1% in assay [1]; 20.4% in assay [2]; 10.5 to 30.1% in assay [3]; 23.2% in assay [4]; 28.2% in assay [5]; 32% in assay [6].
With `O=C(O)c1ccc(S(=O)(=O)NC[C@@H](O)C[C@@H](Cc2ccccc2)C(=O)N[C@H]2c3ccccc3C[C@H]2O)cc1`, the inhibition in assay [1] was 7.4%; in assay [2], 6.4%; in assay [3], 6.4 to 13.1%; in assay [4] it was -1.8%; in assay [5] it was 26%; in assay [6], 0.2%.
`O=C(NC1CCCC1)[C@H](Cc1ccccc1)C[C@H](O)CNS(=O)(=O)c1ccc([N+](=O)[O-])cc1`: the inhibition in assay [1] is -2.1%; in assay [2] it was -4.9%; in assay [3], 6.95 to 17.4%; in assay [4] it was 17.1%; in assay [5], 4.7%; in assay [6] it was 9.2%.
For the compound `O=C(NC1CCCC1)[C@@H](Cc1ccccc1)C[C@H](O)CNS(=O)(=O)c1ccc([N+](=O)[O-])cc1`, the inhibition in assay [1] was -7.5%; in assay [2] it was -2.5%; in assay [3], -5.7 to 0.5%; in assay [4], -6.1%; in assay [5] it was -0.3%; in assay [6], 1.3%.
Take `O=C(NN1CCCCC1)[C@@H](Cc1ccccc1)C[C@H](O)CNS(=O)(=O)c1ccc([N+](=O)[O-])cc1`: the inhibition is 9.2% in assay [1]; 12.3% in assay [2]; -0.9 to 5.35% in assay [3]; 3.3% in assay [4]; 6% in assay [5]; 4.7% in assay [6].
As to `C[C@H](CC(C)(C)C)NC(=O)[C@@H](Cc1ccccc1)C[C@H](O)CNS(=O)(=O)c1ccc([N+](=O)[O-])cc1`, the inhibition was 6.5% in assay [1]; 19.6% in assay [2]; 13.8 to 36.8% in assay [3]; 27.9% in assay [4]; 7.4% in assay [5]; 20.2% in assay [6].
On to `CCCCCNc1ccc(S(=O)(=O)NC[C@@H](O)C[C@@H](Cc2ccccc2)C(=O)N[C@H]2c3ccccc3C[C@H]2O)cc1`, for which the inhibition in assay [1] is 10.8%; in assay [2], 19.1%; in assay [3], 2.8 to 15.2%; in assay [4], 2.3%; in assay [5], 19.1%; in assay [6], 11.3%.
With `O=C(NCc1ccccc1)[C@@H](Cc1ccccc1)C[C@H](O)CNS(=O)(=O)c1ccc([N+](=O)[O-])cc1`, the inhibition in assay [1] is -1%; in assay [2] it was 1.5%; in assay [3] it was -0.3 to 6.05%; in assay [4] it was -4.1%; in assay [5], 4.9%; in assay [6] it was 7.2%.
With `O=C(NCCc1cccc(Cl)c1)[C@@H](Cc1ccccc1)C[C@H](O)CNS(=O)(=O)c1ccc([N+](=O)[O-])cc1`, the inhibition is 9.3% in assay [1]; 10.7% in assay [2]; 11.1 to 13.8% in assay [3]; 23.4% in assay [4]; 13% in assay [5]; 14.7% in assay [6].
As for `CCN(CC)C(=O)[C@H](Cc1ccccc1)C[C@H](O)CNS(=O)(=O)c1ccc([N+](=O)[O-])cc1`, the inhibition in assay [1] is -8.1%; in assay [2] it was -6.1%; in assay [3] it was -5.4 to 0.7%; in assay [4], 7.9%; in assay [5], -4.3%; in assay [6], 5.7%.
For the compound `O=C(NC[C@@H](O)C[C@@H](Cc1ccccc1)C(=O)N[C@H]1c2ccccc2C[C@H]1O)c1ccc([N+](=O)[O-])cc1`, the inhibition in assay [1] was 14%; in assay [2], 22.3%; in assay [3], -0.5 to 18.8%; in assay [4] it was 18.6%; in assay [5], 21.1%; in assay [6] it was 16.4%.
As to `O=C(CCN1C(=O)C=CC1=O)NC[C@@H](O)C[C@@H](Cc1ccccc1)C(=O)N[C@H]1c2ccccc2C[C@H]1O`, the inhibition is 15.5% in assay [1]; 19% in assay [2]; 7.75 to 9.9% in assay [3]; 15.2% in assay [4]; 18.6% in assay [5]; -3.1% in assay [6].
For the compound `O=C(NC[C@@H](O)C[C@@H](Cc1ccccc1)C(=O)N[C@H]1c2ccccc2C[C@H]1O)c1ccccn1`, the inhibition in assay [1] is 14.9%; in assay [2] it was 17.7%; in assay [3] it was 6.1 to 12.9%; in assay [4] it was 32.7%; in assay [5] it was 20.3%; in assay [6], 5.5%.
Regarding `O=C(N[C@H]1c2ccccc2C[C@H]1O)[C@H](Cc1ccccc1)C[C@H](O)CNS(=O)(=O)c1ccccc1C(F)(F)F`, the inhibition is 23% in assay [1]; 18.8% in assay [2]; 10.7 to 22.9% in assay [3]; 24.8% in assay [4]; 24.7% in assay [5]; 21% in assay [6].
For the compound `CN(C)c1ccc(S(=O)(=O)NC[C@@H](O)C[C@@H](Cc2ccccc2)C(=O)N[C@H]2c3ccccc3C[C@H]2O)cc1`, the inhibition in assay [1] is 9.4%; in assay [2], -1.4%; in assay [3], 2.65 to 4.2%; in assay [4], -1.6%; in assay [5], -3.4%; in assay [6], 8.7%.
